# Assay results published in PubChem BioAssay (NCI).
#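 Cultured in 96-well plates, cells were exposed to test compound for 48 hours across five concentrations. GI50 = concentration required for 50% inhibition of growth. Definition used: TGI = concentration required for complete inhibition of growth.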
# Legend:
# Assay in all cases: growth of human tumour cells (NCI), 48 h
# HCC-2998 colon = test system: HCC-2998 colon
# M14 melanoma = test system: M14 melanoma
# SNB-19 CNS = test system: SNB-19 CNS
# NCI-H460 lung = test system: NCI-H460 lung
# SF-539 CNS = test system: SF-539 CNS
# SK-OV-3 ovarian = test system: SK-OV-3 ovarian
# ACHN renal = test system: ACHN renal
# HOP-62 NSCLC = test system: HOP-62 NSCLC
# T-47D breast = test system: T-47D breast
# SR leukemia = test system: SR leukemia
SMILES,GI50 (HCC-2998 colon),TGI (HCC-2998 colon),GI50 (M14 melanoma),TGI (M14 melanoma),GI50 (SNB-19 CNS),TGI (SNB-19 CNS),GI50 (NCI-H460 lung),TGI (NCI-H460 lung),GI50 (SF-539 CNS),TGI (SF-539 CNS),GI50 (SK-OV-3 ovarian),TGI (SK-OV-3 ovarian),GI50 (ACHN renal),TGI (ACHN renal),GI50 (HOP-62 NSCLC),TGI (HOP-62 NSCLC),GI50 (T-47D breast),TGI (T-47D breast),TGI (SR leukemia)
C/C=C/C(=O)[O-].N.N.N.N.N.[Co+3].[O-][Cl+3]([O-])([O-])[O-],> 100 µM,> 100 µM,> 100 µM,> 100 µM,> 100 µM,> 100 µM,> 100 µM,> 100 µM,> 100 µM,> 100 µM,> 100 µM,> 100 µM,> 100 µM,> 100 µM,> 100 µM,> 100 µM,–,–,–
C=C1C(=O)O[C@H]2[C@H]1CC/C(COC(=O)/C=C/c1c[nH]c3ccccc13)=C\CC[C@@]1(C)O[C@@H]21,–,–,0.221 µM,0.572 µM,–,–,1.01 µM,2.66 µM,0.261 µM,0.941 µM,1.88 µM,3.59 µM,0.202 µM,0.545 µM,0.829 µM,2.16 µM,0.205 µM,0.626 µM,–
CNC(C)Cc1ccc(O)cc1 (stereo not drawn),–,> 100 µM,–,> 100 µM,–,> 100 µM,–,> 100 µM,–,> 100 µM,–,> 100 µM,–,> 100 µM,–,> 100 µM,–,–,> 100 µM
COC(=O)C1=C(c2cc(OC)c(OC)c(OC)c2)O[C@H](c2ccc3c(c2)OCO3)[C@H]1COC(C)=O,–,> 100 µM,–,43.3 µM,–,–,–,> 100 µM,–,91.1 µM,–,52.1 µM,–,92.1 µM,–,> 100 µM,–,–,72.6 µM
Cc1ccc(C)c2c1CCc1cc3ccccc3nc1-2,–,> 100 µM,–,> 100 µM,–,> 100 µM,–,> 100 µM,–,> 100 µM,–,> 100 µM,–,> 100 µM,–,> 100 µM,–,–,–
O=C(O)Cc1cc(=O)[nH]c2c1C(=O)CCC2,–,> 100 µM,–,> 100 µM,–,> 100 µM,–,> 100 µM,–,–,–,> 100 µM,–,> 100 µM,–,–,–,–,> 100 µM
CCC1OC(/C(C)=C/C(C)/C=C/C2C(C)C2/C=C/C2OC(CC(=O)O)CC(O)C2O)CC=C1C (stereo not drawn),> 50 µM,> 50 µM,> 50 µM,> 50 µM,> 50 µM,> 50 µM,> 50 µM,> 50 µM,> 50 µM,> 50 µM,> 50 µM,> 50 µM,> 50 µM,> 50 µM,> 50 µM,> 50 µM,> 50 µM,> 50 µM,–
Cc1cccc(O)c(=O)c1,–,> 100 µM,–,> 100 µM,–,> 100 µM,–,> 100 µM,–,> 100 µM,–,> 100 µM,–,> 100 µM,–,> 100 µM,–,–,80.6 µM
COC(=O)c1nn(C(=N)c2ccc(Cl)cc2)c2c1CCCCC2,–,> 100 µM,–,> 100 µM,–,> 100 µM,–,> 100 µM,–,> 100 µM,–,> 100 µM,–,> 100 µM,–,> 100 µM,–,–,> 100 µM
